Assay results reported in ChEMBL document CHEMBL1201862, “PubChem BioAssay data set” (2004).
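Dose response: 5 concentrations. Exposure: 48 h. Format: 96-well plates. Endpoint: linear interpolation; highest concentration if not reached. GI50 = concentration required for 50% inhibition of growth.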 Calls of active or inactive are those of the source. No stated cut-off is given here; in the data, active = GI50 up to about 1.1 µM and inactive = higher.

How the values were obtained:
Assay in all cases: NCI tumour cell line growth inhibition, 48 h
RXF 393 = test system: RXF 393
HCC 2998 = test system: HCC 2998
SK-MEL-5 = test system: SK-MEL-5
SF-268 = test system: SF-268
OVCAR-8 = test system: OVCAR-8
M19-MEL = test system: M19-MEL
SK-MEL-28 = test system: SK-MEL-28
NCI-H226 = test system: NCI-H226
K562 = test system: K562
TK-10 = test system: TK-10
DLD-1 = test system: DLD-1
HT-29 = test system: HT-29
OVCAR-4 = test system: OVCAR-4
UACC-62 = test system: UACC-62
SR = test system: SR
SNB-19 = test system: SNB-19
SNB-75 = test system: SNB-75
DU-145 = test system: DU-145
PC-3 = test system: PC-3
NCI/ADR-RES = test system: NCI/ADR-RES

Measured: GI50

OC(c1ccccc1)(c1ccccc1)c1ccncc1
inactive: RXF 393 > 100 µM | HCC 2998 > 100 µM | SK-MEL-5 > 100 µM | SF-268 > 100 µM | OVCAR-8 > 100 µM | M19-MEL > 100 µM | SK-MEL-28 > 100 µM | NCI-H226 > 100 µM | K562 > 100 µM | TK-10 > 100 µM | DLD-1 > 100 µM | HT-29 > 100 µM | OVCAR-4 > 100 µM | UACC-62 > 100 µM | SR > 100 µM | SNB-19 > 100 µM | SNB-75 36.6 µM

C/C(=N\NC(C)(C)C)c1sc(-c2nc(C)c(/C(C)=N/NC(C)(C)C)s2)nc1C
inactive: RXF 393 > 100 µM | HCC 2998 > 100 µM | SK-MEL-5 > 100 µM | SF-268 > 100 µM | OVCAR-8 > 100 µM | M19-MEL > 100 µM | SK-MEL-28 > 100 µM | NCI-H226 > 100 µM | K562 > 100 µM | DLD-1 > 100 µM | HT-29 > 100 µM | OVCAR-4 > 100 µM | UACC-62 > 100 µM | SR > 100 µM | SNB-19 > 100 µM | SNB-75 8.32 µM

O=C(c1ccccc1)[C@H]1Nc2ccc(Cl)cc2C2c3ccccc3CC21 (stereo partly drawn)
inactive: RXF 393 10.5 µM | HCC 2998 19.9 µM | SK-MEL-5 21.3 µM | SF-268 > 100 µM | OVCAR-8 53.8 µM | M19-MEL 71.4 µM | SK-MEL-28 32.3 µM | NCI-H226 36.7 µM | K562 25.6 µM | TK-10 57.1 µM | DLD-1 > 100 µM | HT-29 83.9 µM | OVCAR-4 22.2 µM | UACC-62 > 10 µM | SR 71.6 µM | SNB-19 > 100 µM | SNB-75 20.8 µM

N#Cc1ccc(/C=N\N2C(=O)c3ccccc3C2=O)cc1
inactive: RXF 393 > 100 µM | HCC 2998 > 100 µM | SK-MEL-5 > 100 µM | SF-268 > 100 µM | OVCAR-8 > 100 µM | M19-MEL > 100 µM | SK-MEL-28 > 100 µM | NCI-H226 > 100 µM | K562 > 100 µM | TK-10 > 100 µM | DLD-1 > 100 µM | HT-29 > 100 µM | OVCAR-4 > 100 µM | UACC-62 > 100 µM | SR > 100 µM | SNB-19 > 100 µM | SNB-75 > 100 µM

N#Cc1ccc(Sc2ccccc2)cc1C#N
inactive: RXF 393 33 µM | HCC 2998 > 100 µM | SK-MEL-5 > 100 µM | SF-268 22.6 µM | OVCAR-8 31 µM | M19-MEL > 100 µM | SK-MEL-28 > 100 µM | NCI-H226 > 100 µM | K562 45.8 µM | TK-10 80.5 µM | DLD-1 34 µM | HT-29 > 100 µM | OVCAR-4 > 100 µM | UACC-62 > 100 µM | SR 18.7 µM | SNB-19 39.3 µM | SNB-75 21.7 µM

C/C(=N/N)c1sc(-c2nc(C)c(/C(C)=N\N)s2)nc1C
inactive: RXF 393 > 100 µM | HCC 2998 > 100 µM | SK-MEL-5 > 100 µM | SF-268 > 100 µM | OVCAR-8 > 86.1 µM | M19-MEL > 100 µM | SK-MEL-28 > 100 µM | NCI-H226 > 100 µM | K562 47.3 µM | TK-10 > 100 µM | DLD-1 > 67.9 µM | HT-29 > 80.9 µM | OVCAR-4 > 100 µM | UACC-62 > 92.7 µM | SR 16.4 µM | SNB-19 > 100 µM | SNB-75 > 100 µM

O=C1C=C(Nc2ccccc2C(=O)CC(=O)C(=O)Nc2ccc(Cl)cc2)c2ccccc2C1=O
inactive: RXF 393 11.5 µM | HCC 2998 17.5 µM | SK-MEL-5 4.32 µM | SF-268 14.2 µM | OVCAR-8 6.59 µM | M19-MEL 1.95 µM | SK-MEL-28 16.7 µM | NCI-H226 24.4 µM | K562 3.24 µM | TK-10 > 74.5 µM | DLD-1 5.56 µM | HT-29 41.5 µM | OVCAR-4 10.9 µM | UACC-62 13.3 µM | SR > 100 µM | SNB-19 14 µM | SNB-75 17.1 µM

Cc1cc(C)c(/C=N/NS(=O)(=O)c2ccccc2)c(C)c1
inactive: RXF 393 44.9 µM | HCC 2998 > 100 µM | SK-MEL-5 > 100 µM | SF-268 > 100 µM | OVCAR-8 71.6 µM | M19-MEL > 100 µM | SK-MEL-28 > 100 µM | NCI-H226 > 100 µM | K562 94.4 µM | TK-10 > 100 µM | DLD-1 91.8 µM | HT-29 > 100 µM | OVCAR-4 > 100 µM | UACC-62 > 100 µM | SR 31.4 µM | SNB-75 > 100 µM

COc1cc(=O)oc(/C=C/CO)c1C
inactive: RXF 393 > 100 µM | HCC 2998 > 100 µM | SK-MEL-5 > 100 µM | SF-268 > 100 µM | OVCAR-8 > 100 µM | M19-MEL > 100 µM | SK-MEL-28 > 100 µM | NCI-H226 > 100 µM | K562 > 100 µM | TK-10 > 100 µM | DLD-1 > 100 µM | HT-29 > 100 µM | OVCAR-4 > 100 µM | UACC-62 > 100 µM | SR > 100 µM | SNB-19 > 100 µM | SNB-75 > 100 µM

O=C1OC(CC(=O)c2ccc(Cl)cc2Cl)C(Cl)=C1Cl (stereo not drawn)
inactive: RXF 393 18.2 µM | HCC 2998 15.8 µM | SK-MEL-5 45.6 µM | SF-268 25.2 µM | OVCAR-8 27.2 µM | M19-MEL 20 µM | SK-MEL-28 19.1 µM | NCI-H226 30 µM | K562 29.1 µM | TK-10 > 55.5 µM | DLD-1 22.4 µM | HT-29 18.7 µM | OVCAR-4 42.6 µM | UACC-62 17 µM | SR 26.5 µM | SNB-19 > 49.2 µM | SNB-75 > 43.7 µM

C1=CC=C2NCCCCCC/N=C3\C=CC=CC=C3NCCc3cccc(c3)CC/N=C/2C=C1
inactive: RXF 393 13.4 µM | HCC 2998 10 µM | SF-268 31.7 µM | OVCAR-8 14.8 µM | M19-MEL 16.7 µM | NCI-H226 32.5 µM | K562 4.59 µM | DLD-1 36.6 µM | HT-29 6.07 µM | OVCAR-4 12.7 µM | UACC-62 21.7 µM | SR 9.82 µM | SNB-19 26.5 µM | SNB-75 21.3 µM

COc1ccc2nc3cc(Cl)ccc3c(Sc3ccccc3[N+](=O)[O-])c2c1
inactive: RXF 393 49.5 µM | HCC 2998 > 100 µM | SK-MEL-5 > 100 µM | SF-268 > 100 µM | OVCAR-8 > 100 µM | M19-MEL > 100 µM | SK-MEL-28 > 100 µM | NCI-H226 17.7 µM | K562 > 100 µM | TK-10 81.8 µM | DLD-1 > 100 µM | OVCAR-4 > 100 µM | UACC-62 > 100 µM | SR > 100 µM | SNB-19 > 100 µM | SNB-75 16.9 µM

CCN(CC)CCNc1ccc2nnn3c4ccc([N+](=O)[O-])cc4c(=O)c1c23
inactive: RXF 393 4.78 µM | HCC 2998 25.8 µM | SK-MEL-5 3.62 µM | SF-268 6.37 µM | OVCAR-8 4.76 µM | M19-MEL > 20.5 µM | DU-145 7.69 µM | SK-MEL-28 14 µM | NCI-H226 3.34 µM | K562 6.7 µM | TK-10 11.6 µM | DLD-1 3.93 µM | PC-3 5.26 µM | HT-29 3.89 µM | OVCAR-4 9.18 µM | UACC-62 > 36.4 µM | SR 5.01 µM | SNB-19 6.43 µM | NCI/ADR-RES 7.16 µM | SNB-75 4.91 µM
